Results from US3994974A, “α-Aminomethylbenzyl alcohol derivatives” (Yamanouchi Pharmaceutical Co., Ltd., priority 1972, dated 1976).
≈ marks a conversion by molar mass, not a printed value. Where a name gives a salt, the structure may show the parent alone. Read-outs that look alike come from different tables or passages of the source.

Tests used:
[1] = tested on: isolated bronchial smooth muscle; assay: Activity on isolated bronchial smooth muscle (in vitro test), methacholine chloride as spasmogen (Anti-methacholine Chloride); format: cell-based, guinea pig; conditions: for EC50: Cavia porcellus, read-out: Anti-methacholine Chloride ED50; for Anti-methacholine Chloride relative activity: relative to control E (trimetoquinol) = 1.0, ED50 ratio, smaller = more potent
Experimental: (§1) Activity on isolated bronchial smooth muscle (in vitro test)
(§2) The trachea of a guinea pig was cut spirally and the isolated bronchial preparation was suspended in Magnus bath. Tyrode's solution was filled in a 50 ml bath and kept at 37° C. Then, 10-^5 g/ml of histamine dihydrochloride or methacholine chloride was added to a bath as spasmogen. After the contraction of the trachea reached a plateau, a test substance shown in the below-showing table was added to the preparation, cumulatively. The concentration producing 50% relaxation of the contracted bronchial muscle was designated as ED50.

[2] = biological target: T1, β2 (Canis lupus familiaris, UniProt P54833); assay: β2-action: inhibition of histamine-induced increase in bronchial resistance in anesthetized dogs; format: in vivo, Mongrel dogs; conditions: dog, intravenous, cumulative, 5 minutes before histamine 10 μg/Kg i.v.
T1 construct: Mongrel dogs of either sex; from tissue; host or cells: airways of the living anesthetized mongrel dog (bronchial resistance)

[3] = biological target: T2, β1 (Canis lupus familiaris, UniProt P79148); assay: β1-action: heart rate response (ΔHR) in anesthetized dogs; format: in vivo, Mongrel dogs; conditions: intravenous
T2 construct: Mongrel dogs of either sex; from tissue; host or cells: heart of the living anesthetized mongrel dog (heart rate)
Experimental: Mongrel dogs of either sex weighing about 10 Kg were anesthetized with pentobarbital Na, 30 mg/Kg intravenously. Arterial blood pressure was measured from a cannula in the right femoral artery and the pulse pressure used to trigger a ratemeter for a record of heart rate. (β1.action). Intravenous injections were made through a cannula in a femoral vein, and ED50bpm values were obtained from the does-response (ΔHR) curves. ED50bpm vs. ED50 ratios mean its own selectivity.

[4] = tested on: β1 /β2; assay: Selectivity (ratio of β1/β2), ED50bpm vs. ED50 in anesthetized dogs; format: in vivo, Mongrel dogs
[5] = tested on: isolated bronchial smooth muscle; assay: Activity on isolated bronchial smooth muscle (in vitro test), histamine dihydrochloride as spasmogen (Anti-histamine); format: cell-based, guinea pig; conditions: for EC50: Cavia porcellus, read-out: Anti-histamine ED50; for Anti-histamine relative activity: relative to control E (trimetoquinol) = 1.0, ED50 ratio, smaller = more potent
Experimental: as §1, §2

[6] = tested on: Histamine-asthma; assay: Activity on experimental asthma (in vivo test), Histamine-asthma; design: species or system guinea pig; conditions: Cavia porcellus, sc, read-out: Histamine-asthma ED50
Experimental: (§3) Activity on experimental asthma (in vivo test)
(§4) A guinea pig was placed in a 11 liter glass chamber and exposed to the spasmogen by means of a nebulizer. […] Drugs were administered subcutaneously to animals 30 minutes before application of the spasmogen. […] ED50 was calculated by the method of Litchfield-Wilcoxon [J. Pharmacol. Exptl. Therap, 96, 99-113 (1949)].

[7] = tested on: Methacholine chloride-asthma; assay: Activity on experimental asthma (in vivo test), Methacholine chloride-asthma; design: species or system guinea pig; conditions: Cavia porcellus, sc, read-out: Methacholine chloride-asthma Ed50
Experimental: as §3, §4

[8] = concentration producing 50% relaxation of contracted bronchial muscle, 10^-5 g/ml methacholine chloride, guinea pig trachea, 37° C
[9] = concentration producing 50% relaxation of contracted bronchial muscle, 10^-5 g/ml histamine dihydrochloride, guinea pig trachea, 37° C
[10] = subcutaneous, 30 minutes before 0.01% histamine dihydrochloride spray, Litchfield-Wilcoxon
[11] = subcutaneous, 30 minutes before methacholine chloride spray, Litchfield-Wilcoxon

T2 sequence (P79148 whole entry): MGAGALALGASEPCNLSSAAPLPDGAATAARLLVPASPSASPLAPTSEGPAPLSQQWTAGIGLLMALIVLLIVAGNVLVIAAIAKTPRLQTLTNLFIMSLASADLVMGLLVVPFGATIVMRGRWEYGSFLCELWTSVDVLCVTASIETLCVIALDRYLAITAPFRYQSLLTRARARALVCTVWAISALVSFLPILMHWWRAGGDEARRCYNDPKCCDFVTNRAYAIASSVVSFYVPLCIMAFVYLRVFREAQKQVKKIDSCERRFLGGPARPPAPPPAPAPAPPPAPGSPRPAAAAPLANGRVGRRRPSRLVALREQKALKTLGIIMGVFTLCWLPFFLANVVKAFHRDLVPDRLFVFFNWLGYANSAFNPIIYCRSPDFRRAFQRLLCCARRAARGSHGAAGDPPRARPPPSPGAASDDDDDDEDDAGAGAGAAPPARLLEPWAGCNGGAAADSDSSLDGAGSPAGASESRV
T1 sequence (P54833 whole entry): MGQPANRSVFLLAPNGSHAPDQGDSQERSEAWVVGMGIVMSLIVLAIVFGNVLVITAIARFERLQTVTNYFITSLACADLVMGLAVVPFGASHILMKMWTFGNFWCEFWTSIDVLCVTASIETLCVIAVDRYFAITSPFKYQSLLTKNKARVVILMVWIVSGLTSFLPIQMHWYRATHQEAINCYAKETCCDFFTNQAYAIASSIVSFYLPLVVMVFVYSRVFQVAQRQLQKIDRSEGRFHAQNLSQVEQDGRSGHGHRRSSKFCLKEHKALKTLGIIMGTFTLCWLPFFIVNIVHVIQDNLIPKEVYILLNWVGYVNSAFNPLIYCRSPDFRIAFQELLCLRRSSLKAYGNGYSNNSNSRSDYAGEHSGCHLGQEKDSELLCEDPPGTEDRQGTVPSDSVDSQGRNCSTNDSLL

In the case of CC(C)(C)NCC(O)c1ccc(O)c(CO)c1 (stereo not drawn) [Known compound D, 4-hydroxy-3-hydroxymethyl-α-tert-butylaminomethylbenzyl alcohol], the EC50 [1, 8] is reported as 0.096 µg/mL (≈ 0.401 µM), the “Anti-methacholine Chloride relative activity” value [1] is reported as 4.57 and the ED50 [2] is reported as 1.4 µg/kg. For the same compound, the “β1-action ED50bpm” value [3] was 7.0 µg/kg, the “Selectivity (ratio of β1/β2)” value [4] was 5.0 and the EC50 [5, 9] was 0.01 µg/mL (≈ 0.0418 µM). It also gave an Anti-histamine relative activity [5] of 3.7.
In the case of CC(Cc1ccc(O)cc1)NCC(O)c1ccc(O)c(NC=O)c1 (single isomer, unassigned) [Example 8, 3-formylamino-4-hydroxy-α-[N-(1-methyl-2-p-hydroxyphenylethyl)aminomethyl]benzyl alcohol [A] . 1/2 fumarate], the ED50 [6, 10] is reported as 1.9 µg/kg, the EC50 [1] is reported as 0.011 µg/mL and the “Anti-methacholine Chloride relative activity” value [1] is reported as 0.52. The ED50 [7] was 2.6 µg/kg, the “β1-action ED50bpm” value [3] was 0.26 µg/kg and the “Selectivity (ratio of β1/β2)” value [4] was 8.38. It also gave an EC50 [5] of 0.00094 µg/mL and an Anti-histamine relative activity [5] of 0.35.
COc1ccc(CC(C)NCC(O)c2ccc(O)c(NC=O)c2)cc1 (single isomer, unassigned) [Example 22, 3-formylamino-4-hydroxy-α-[N-(1-methyl-2-p-methoxyphenylethyl)aminomethyl]benzyl alcohol [A] . 1/2 fumarate] was tested, and the ED50 [6] was 3.6 µg/kg, the EC50 [1] was 0.0046 µg/mL and the “Anti-methacholine Chloride relative activity” value [1] was 0.22. The “β1-action ED50bpm” value [3] was 0.72 µg/kg, the EC50 [5] was 0.00046 µg/mL and the Anti-histamine relative activity [5] was 0.17.
CC(C)NCC(O)c1ccc(O)c(N)c1 (stereo not drawn) [Known compound A, 3-amino-4-hydroxy-α-isopropylaminomethylbenzyl alcohol] was tested, and the EC50 [1] was 3 µg/mL (≈ 14.3 µM), the “Anti-methacholine Chloride relative activity” value [1] was 143 and the EC50 [5] was 0.3 µg/mL (≈ 1.43 µM). It also gave an Anti-histamine relative activity [5] of 111.
CC(=O)Nc1cc(C(O)CNC(C)C)ccc1O.Cl (stereo not drawn) [3-acetylamino-4-hydroxy-α-(isopropylaminomethyl)benzyl alcohol hydrochloride] was tested, and the EC50 [1, 8] was greater than 100 µg/mL, the “Anti-methacholine Chloride relative activity” value [1] was greater than 4760 and the EC50 [5, 9] was 1 µg/mL. The Anti-histamine relative activity [5] was 370.
CC(C)NCC(O)c1ccc(O)c(O)c1 (stereo not drawn) [Known compound F, α-(isopropylaminomethyl) protocatechuyl alcohol] was tested, and the ED50 [6, 10] was 15.7 µg/kg, the EC50 [1, 8] was 0.028 µg/mL (≈ 0.133 µM) and the “Anti-methacholine Chloride relative activity” value [1] was 1.33. For the same compound, the ED50 [7, 11] was 11.2 µg/kg, the EC50 [5, 9] was 0.0055 µg/mL (≈ 0.026 µM) and the Anti-histamine relative activity [5] was 2.04.
CNC(=O)Nc1cc(C(O)CNC(C)C)ccc1O (stereo not drawn) [Known compound C, 4-hydroxy-3-(N'-methylureido)-α-isopropylaminomethylbenzyl alcohol] was tested, and the EC50 [1, 8] was greater than 100 µg/mL, the “Anti-methacholine Chloride relative activity” value [1] was greater than 4760 and the EC50 [5, 9] was 0.09 µg/mL (≈ 0.337 µM). It also gave an Anti-histamine relative activity [5] of 3.33.
CC(CCc1ccc(O)cc1)NCC(O)c1ccc(O)c(NC=O)c1 (stereo not drawn) [Example 19, 3-formylamino-4-hydroxy-α-[N-(1-methyl-3-p-hydroxyphenylpropyl)aminomethyl] benzyl alcohol . 1/2 fumarate . mono-hydrate] was tested, and the ED50 [6, 10] was 1.4 µg/kg, the EC50 [1, 8] was 0.0089 µg/mL and the “Anti-methacholine Chloride relative activity” value [1] was 0.42. For the same compound, the ED50 [7, 11] was 8.1 µg/kg, the “β1-action ED50bpm” value [3] was 0.59 µg/kg and the “Selectivity (ratio of β1/β2)” value [4] was 12. The EC50 [5, 9] was 0.00086 µg/mL and the Anti-histamine relative activity [5] was 0.32.
In the case of CCOC(=O)Nc1cc(C(O)CNC(C)C)ccc1O (stereo not drawn) [Known compound B, 3-ethoxycarbonylamino-4-hydroxy-α-isopropylaminomethylbenzyl alcohol], the EC50 [1, 8] is reported as greater than 100 µg/mL, the “Anti-methacholine Chloride relative activity” value [1] is reported as greater than 4760 and the EC50 [5, 9] is reported as 5 µg/mL (≈ 17.7 µM). For the same compound, the Anti-histamine relative activity [5] was 185.
With COc1cc(C[C@@H]2NCCc3cc(O)c(O)cc32)cc(OC)c1OC [Known compound E, l-1-(3,4,5-trimethoxybenzyl)-6,7-dihydroxy 1,2,3,4-tetrahydroisoquinoline hydrochloride] the ED50 [6, 10] was 11.3 µg/kg, the EC50 [1, 8] was 0.021 µg/mL and the “Anti-methacholine Chloride relative activity” value [1] was 1.0. It also gave an ED50 [7, 11] of 12.4 µg/kg, an EC50 [5, 9] of 0.0027 µg/mL and an Anti-histamine relative activity [5] of 1.0.
